Assays:
[1] = cited from earlier work
human fetal neurons [2] = settings: human fetal neuronal cultures, Turchan et al. 2001; cited from earlier work
rat hippocampal neurons = assay: Protein carbonyl immunoreactivity in rat hippocampal cell cultures; settings: 48-hrs treatment
human fetal neurons [3] = tested on: human fetal neurons
Description: Culture of Human Brain Cells: Neuronal cultures were prepared as described previously (Magnuson D S, et al. Ann Neurol 1995, 37: 373-380; Nath A, et al. J Virol 1996, 70: 1475-1480; New D, et al. J Neurovirol 1997, 3: 168-173). Human fetal brain specimens of gestational age 12-14 weeks were obtained with the consent of women opting for elective termination of pregnancy. Protocols were carried out with strict adherence to the guidelines of the National Institutes of Health (NIH) and with approval from the University of Kentucky Institutional Review Board. Briefly, after mechanical dissociation, the cells were suspended in Opti-MEM with 5% heat-inactivated fetal bovine serum, 0.2% N2 supplement and 1% antibiotic solution (penicillin G sodium 104 units/ml, streptomycin sulfate 10 μg/ml and amphotericin-B 25 μg/ml) (GIBCO). The cells were maintained in culture flasks at 37° C. in a humidified atmosphere of 5% CO2 and 95% air for at least a month. At least 3 days before the experiment was performed the cells were plated in flat bottom 96 well plates coated with poly-d-lysine. Sample cultures were stained for the neuron-specific enolase, microtubule-associated protein-2, synaptophysin, and glial fibrillary astrocytic protein (GFAP). […] Sample cultures were further characterized for the presence of ER-α and ER-β and dopaminergic neurons.
Neurotoxicity Assay: At the time of the experimental treatment, the culture media was replaced with Locke's buffer containing (in mM) 154 NaCl, 5.6 KCl, 2.3 CaCl2, 1 MgCl2, 3.6 NaHCO3, 5 glucose, 5 N-2-hydroxyethylpiperazine-N′2-ethanesulfonic acid (HEPES) and 1% antibiotic solution (penicillin G sodium 104 units/ml, streptomycin sulfate 10 μg/ml and amphotericin-B 25 μg/ml) (pH 7.2). […] To replicate the stereoisomer specific neuroprotective properties of estrogen, the cultures were treated with either […] (10 nM), or 17α-E2 (10 nM) immediately preceding addition of the HIV proteins plus cocaine. To investigate the neuroprotective properties of other gonadal steroids, the cells were treated with various concentrations of PROG or T, immediately followed by exposure to the HIV proteins plus cocaine. […] Various concentrations of cholesterol were used as treatment prior to incubation with the HIV proteins plus cocaine to further characterize the nature of gonadal steroid neuroprotection. ICI-182,780, DMSO (10 nM), β-cyclodextrin (100 nM) and ethanol (10 nM) were also tested for neurotoxic/protective effects. ICI-182,780 and 17α-E2 were solvated in DMSO. […], T, PROG and cholesterol were β-cyclodextrin encapsulated to provide water solubility. Ethanol was used to solvate DHT. Tat1-72 was produced as indicated above, whereas gp120 was a gift from Chiron Corporation. The ICI-182,780 compound was obtained from Tocris Cookson, Inc. (Ellisville, Mo.). All other chemical agents were supplied by Sigma Chemicals (St. Louis, Mo.). At the end of the incubation period neuronal death was assessed by trypan blue (Sigma) exclusion assay as described previously (Vongher J and Frye C. Pharmacol Biochem Behav 1999, 64: 777-785; Magnuson D S, et al. Ann Neurol 1995, 37: 373-380; Nath A, et al. J Virol 1996, 70: 1475-1480).

[4] = repeated daily dosing in rat (Robinson et al. 1994)

SMILES: COC(=O)[C@H]1[C@@H](OC(=O)c2ccccc2)C[C@@H]2CC[C@H]1N2C.Cl [cocaine, Cocaine hydrochloride]
- time to peak arterial plasma levels ([1]; 3.0 mg/kg/injection IV (Booze et al. 1997)): within one-minute
- t1/2 in plasma ([1]; IV 3.0 mg/kg, rats (Booze et al., 1997)): 12 to 13 min
- fetal brain levels of cocaine [1, 4]: 1750 ± 250 ng/mL
- fetal plasma levels of cocaine [1, 4]: 500 ng/mL
- cocaine level not neurotoxic (prior work) (human fetal neurons [2]): ≤ 16 µM
- levels of protein oxidation, Tat + cocaine vs Tat alone (rat hippocampal neurons): higher than in cultures treated with just Tat alone
- toxicity of HIV proteins combined with cocaine (human fetal neurons [3]; Tat 40 nM + gp120 32.5 pM + cocaine 1.6 μM): synergistic neurotoxicity
- toxicity alone vs Locke's buffer (human fetal neurons [3]; substance alone, 15 hours): Neither the HIV proteins, Tat plus gp120, nor cocaine alone were more toxic than the Locke's buffer control

Source: patent US20080306019A1, “Dopamine Receptor Agonists in the Treatment and Prevention of Hiv-Induced Dementia” (priority 2005, published 2008)
